# Reference: patent US20140377337A1 (priority 2012, published 2014)
# Key:
# [1] = system: ocular district; assay: Blood flow / anti-ischemic effect in the ocular district after PGE1 cream on the inner forearm; format: in vivo, patient
# [2] = system: high myopia; conditions: intravenously administered PGE1, conclusion of the cited publication; cited from earlier work
smiles,measurement,setting,value
"CCCCC[C@H](O)/C=C/[C@H]1[C@H](O)CC(=O)[C@@H]1CCCCCCC(=O)O [PGE1, prostaglandin E1]",anti-ischemic effects in the ocular district versus 60 micrograms of PGE1 by intravenous infusion,"[1]; cream 20 μg per ml, patient weighing 60 kg, total dose 4 ml of cream (80 μg total of PGE1), transdermal",comparable
same,effect on blood flow at the ocular district level,"[1]; cream with 10-30 micrograms of PGE1 per ml, applied on the inner forearm",increased blood flow
same,duration of the effect of the intravenous administration,[2],6-8 weeks
